Test results taken from patent US20250215016A1, “ISOXAZOLE-HETEROCYCLIC DERIVATIVE, PHARMACEUTICAL COMPOSITION AND USE” (SHANGHAI SIMR BIOTECHNOLOGY CO., LTD, priority 2022, published 2025).

Experiments:
[1] = Stability in simulated gastric fluid (SGF); format: physicochemical; settings: 37° C., 1000 rpm
Procedure: Simulated gastric fluid (SGF), Manufacturer: Dongguan Chuangfeng Automation Technology Co., Ltd.; Product model: CF-006.
Oscillating constant temperature metal bath, Model: Thermo; Manufacturer: Digital Skaking Drybath.
Temperature: 37° C.; rotating speed: 1000 rpm; sampling time: 0, 4 hours.
Chromatographic column: Welch Xtimate C18 3.0×100 mm, 5 μm. Mobile phase: A: 0.04% trifluoroacetic acid (TFA)/H2O (v/v), B: acetonitrile (ACN). Gradient elution was performed according to the following table, flow rate: 1.0 mL/min; injection volume: 5 μL; column temperature: 35° C.; wavelength: 254 nm.
• (a) preparation of 0.04% TFA/H2O: 400 μL of TFA was measured, placed into 1 L of H2O, and homogenously mixed; • (b) Sample stock solution: about 3 mg of test sample was weighed, and prepared into a stock solution of 10 mmol/L using DMSO; • (c) 50 μL of the sample stock solution was taken, placed into a 5 mL volumetric flask, made up to the scale with the addition of SGF, and homogenously mixed. 400 μL of the solution was taken, four samples in parallel, and shaken at 1000 rpm and 37° C.; • (d) every two samples were taken after 0 and 4 hours respectively, 400 μL of acetonitrile was added, and homogenously mixed, followed by liquid phase injection, and calculation of the change % of the main peak area in the solution after 4 hours relative to 0 hour, two average value reports being taken at each time point.

[2] = biological target: human α5β3γ2 receptor (α5-GABAA receptor) (Homo sapiens (Human), UniProt P18507+P31644); assay: Radioligand (3H-flunitrazepam) competition binding assay, BZD site; settings: 3H-flunitrazepam 1 nM; HEK293 membranes expressing human α5β3γ2
Source text: α, β and γ subunits are essential for the formation of a complete functional GABAA receptor. In this example, HEK293 cell strains stably expressing human α5-GABAA receptor (comprising α5β3γ2 subunit) and α2-GABAA receptor (comprising α2β3γ2 subunit) were constructed and screened, respectively, by liposome transfection method (Felgner, P. L., et al., Proceedings of the National Academy of Sciences, 1987, 84:7413-7417). The specific subunit protein sequences are as follows: α5 subunit (protein sequence can be found in GenBank accession number: NM_000810.3); α2 subunit (protein sequence can be found in GenBank accession number: NM_000807.4); β3 subunit (protein sequence can be found in GenBank accession number: NM_000814.5); γ2 subunit (protein sequence can be found in GenBank accession number: NM_000816.3).
(§1) The above cell lines were subcultured. Amplification of α5β3γ2-HEK293 and α2β3γ2-HEK293 cells was used to test the affinity of the compounds to benzodiazepine site (BZD) of the GABAA receptor. During the passage of α5β3γ2-HEK293 cells, some of the suspended cells were spread on a glass slide pretreated with Poly-D-Lysine for electrophysiological testing.
Flunitrazepam is a non-specific reagent that binds to the BZD site efficiently. The affinity of the compounds to the BZD sites of the human α5β3γ2 and α2β3γ2 receptors can be determined by competing the compound with ^3H-flunitrazepam (isotope ^3H-labeled flunitrazepam) for binding to these two receptors.
Membrane preparation: HEK293 cells stably expressing human α5β3γ2 receptor or α2β3γ2 receptor were collected, suspended in 50 mM Tris-HCl buffer (pH=7.4), homogenized on ice by a homogenizer for 20 seconds 10 times, and centrifuged at 4° C., 1000 g for 10 min. The supernatant was collected, and the above steps were repeated. The supernatant was centrifuged (33800 g; centrifuge purchased from Thermo, rotor model: A27-8×50) at 4° C. for 60 min, and the precipitate was resuspended in Tris buffer (50 mM Tris-HCl, 10 mM MgCl2, 0.5 mM EDTA, 10% glycerol). The precipitate was the cell membrane. Protein content was determined by BCA (Bicinchoninic Acid) method (BCA kit from Pierce (Annoron)). The cell membrane was prepared into 1 ml aliquot and stored at −80° C.
Radioligand competition binding assay: the assay was carried out in a 200 μL system (96-well plate from Agilent) with 100 μL of cell membrane. The concentration of ^3H-flunitazepam (from PerkinElmer, lot: NET567250 UC) was 1 nM and the concentration of test compound was in the range 1×10^−5-10^−6 M. Flumazenil (from Tocris; lot: 1318) was used as a control. 1 μL of 2 mM flumazenil (final concentration 10 μM) was added to the Low signal control well (Low control, LC) and 1 μL of DMSO (from Sigma aldrich, lot: 472301) was added to the High signal control well (High control, HC). The final target membrane protein concentration was 5 μg/well. All test compound sample stocks were 10 mM DMSO solutions. The working concentration of the samples is to dilute all samples with DMSO to 0.2 mM, and then perform 4-fold continuous gradient dilution for a total of 8 concentration gradients. The 96-well plate was sealed with a plate sealing membrane and then incubated on a shaker at room temperature for 1 hour. Meanwhile, GF/C filter plate was soaked with a plate soaking buffer (0.3% PEI, polyethyleneimine, purchased from Sigma aldrich, model: P314, stored at 4° C.) for at least 0.5 hours. After completion of binding incubation, the cells were collected with a cell collector onto the GF/C filter plate and washed four times with a plate washing buffer (50 mM Tris-HCl, pH 7.4, stored at 4° C.). […]

α5-GABAA receptor = α5-GABAA receptor (Homo sapiens (Human), UniProt P18507+P31644); assay: Whole-cell patch clamp electrophysiology, inverse regulation activity in α5β3γ2-HEK293 cells; format: cell-based; settings: compound 100 nM; GABA 0.05-0.06 μM (about EC7-8); clamped at −60 mV; read-out: Inverse regulation efficiency to α5-GABAA receptor
Source text: α, β and γ subunits are essential for the formation of a complete functional GABAA receptor. […] The specific subunit protein sequences are as follows: α5 subunit (protein sequence can be found in GenBank accession number: NM_000810.3); α2 subunit (protein sequence can be found in GenBank accession number: NM_000807.4); β3 subunit (protein sequence can be found in GenBank accession number: NM_000814.5); γ2 subunit (protein sequence can be found in GenBank accession number: NM_000816.3).
as §1
The inverse regulation activity of the test drugs on α5-GABAA receptor was detected by an electrophysiological method. The specific method was as follows:
Compound concentration setting: the final concentration of the compounds used for compound screening was 100 nM. GABA concentration was 0.05-0.06 μM (about EC7-8). […] The extracellular fluid (ECS) ingredients for electrophysiology were as follows: 150 mM NaCl, 5 mM KCl, 2.5 mM CaCl2, 1 mM MgCl2, 10 mM HEPES and 10 mM glucose (pH 7.4); the electrode internal solution (ICS) formula for electrophysiology was as follows: 140 mM CsCl, 11 mM EGTA, 10 mM HEPES, 2 mM CaCl2, 1 mM MgCl2, 4 mM MgATP, 2 mM TEA (pH 7.3). The above reagents were all purchased from Sigma aldrich. GABA (γ-aminobutyric acid, from sigma aldrich, lot: A5385) powder was prepared into a stock solution with pure water and then diluted in ECS. The compound was first prepared into a 4 mM stock solution with DMSO, and then gradually diluted in corresponding concentrations of GABA-ECS. The solutions were all prepared fresh prior to electrophysiological testing.
Electrophysiological signal acquisition were performed by using EPC 10 amplifier and PatchMaster software (HEKA) or Axon 700 B amplifier and Clampex software (AXON). The recording electrode was made by drawing borosilicate glass (purchased from sutter), and has an electrode resistance of 4˜6 MΩ. Extracellular administration was carried out using ALA-VC-8PG (purchased from ALA, USA) system. A single independently grown cell was selected, and lysis was performed after the glass electrode and the cell forming a good seal, to form a whole cell mode. With the cellular membrane potential clamped at −60 mV, recording was carried out in the Gap-free mode. For the test, extracellular fluid was first applied extracellularly for about 20 seconds. After baseline (Iprebaseline) was stabilized, the extracellular fluid was switched to GABA-ECS. At this time, the current (Igaba) caused by GABA can be detected. At about 20-40 seconds, after the current stabilized, the extracellular fluid was switched to a mixed solution of the compound and GABA-ECS, until the current (Itreatment) caused by both the compound and GABA can be detected. Finally, the solution was switched to the extracellular fluid and the test was terminated after recording for 20-40 seconds.
The experimental results were analyzed using PatchMaster v2x90.1 or PatchMaster v2x90.3 software (EPC 10 amplifier) and Clampex10.6 software (Axon700B amplifier). The current value of each stage was calculated according to the average value of the stabilized current under the corresponding conditions. We defined the control current as Igaba−Iprebaseline, and the current after compound treatment as Itreatment−Iprebaseline. The inverse regulation activity of the compounds is expressed as a percentage and is calculated according to the following formula: Inverse regulation efficiency=[(Itreatment−Igaba)/(Igaba−Iprebaseline)]×100%.

Row | SMILES | Residual content in simulated gastric juice after 4 hours (compared with 0 hour content) [1] | Ki [2] [nM] | inhibition at 0.1 µM (α5-GABAA receptor) [%]
1 | Cc1onc(-c2ccc(F)cc2)c1COc1cnc(-c2cnn3c2COCC3)cn1 [Compound 44, 3-(5-((3-(4-fluorophenyl)-5-methylisoxazol-4-yl)methoxy)pyrazin-2-yl)-6,7-dihydro-4H-pyrazolo[5,1-c][1,4]oxazine] | 94% (4 hours) | 0.99 | 36
2 | Cc1onc(-c2ccc(F)cc2)c1COc1ccc(-c2nnc3n2CCN(C)C3=O)cn1 [Compound 2, 3-(6-((3-(4-fluorophenyl)-5-methylisoxazol-4-yl)methoxy)pyridin-3-yl)-7-methyl-6,7-dihydro-[1,2,4]triazolo[4,3-a]pyrazin-8 (5H)-one] | 46% (4 hours) | 7.7 | 29
3 | Cc1onc(-c2ccc(F)cc2)c1COc1ccc(C(=O)NC2CCOCC2)cn1 [WO2009071476, Example 109, reference compound] | 15% (4 hours) |  | 
4 | Cc1onc(-c2ccc(F)cc2)c1COc1cnc(N2CCn3cccc3C2=O)cn1 [Compound 45, 2-(5-((3-(4-fluorophenyl)-5-methylisoxazol-4-yl)methoxy)pyrazin-2-yl)-3,4-dihydropyrrolo [1,2-a]pyrazin-1(2H)-one] | 87% (4 hours) |  | 
5 | Cc1onc(-c2ccc(F)cc2)c1COc1ccc(C(=O)N2CCS(=O)(=O)CC2)cn1 [WO2009071476, Example 112, reference compound] | 2% (4 hours) |  | 
6 | Cc1onc(-c2ccc(F)cc2)c1COc1cnc(-c2nnc3n2CCN(C2CCC2)C3=O)cn1 [Compound 4, 7-cyclobutyl-3-(5-((3-(4-fluorophenyl)-5-methylisoxazol-4-yl)methoxy)pyrazin-2-yl)-6,7-dihydro-[1,2,4]triazolo[4,3-a]pyrazin-8(5H)-one] | 89% (4 hours) |  | 
7 | Cc1onc(-c2ccc(F)cc2)c1COc1ccc(C(=O)NC2CCOCC2)nn1 [WO2009071477, Example 63, reference compound] | 0% (4 hours) |  | 
8 | Cc1onc(-c2ccc(F)cc2)c1COc1cnc(N2CCn3c(nnc3C(F)(F)F)C2=O)cn1 [Compound 26, 7-(5-((3-(4-fluorophenyl)-5-methylisoxazol-4-yl)methoxy)pyrazin-2-yl)-3-(trifluoromethyl)-6,7-dihydro-[1,2,4]triazolo[4,3-a]pyrazin-8(5H)-one] | 80% (4 hours) |  | 

Now from value to compound:

Row | Residual content in simulated gastric juice after 4 hours (compared with 0 hour content) [1] | Ki [2] [nM] | inhibition at 0.1 µM (α5-GABAA receptor) [%] | SMILES
9 | 31% (4 hours) | 3.84 | 37 | Cc1onc(-c2ccc(F)cc2)c1COc1ccc(N2CCN3CCOC[C@@H]3C2)nn1 [Compound 49, (S)-8-[6-((3-(4-fluorophenyl)-5-methylisoxazol-4-yl)methoxy)pyridazin-3-yl] octahydropyrazino[2,1-c][1,4]oxazine]
10 | 82% (4 hours) |  | 31 | Cc1onc(-c2ccc(F)cc2)c1COc1cnc(-c2cc3n(c(=O)n2)CCN3C)cn1 [Compound 47, 7-(5-((3-(4-fluorophenyl)-5-methylisoxazol-4-yl)methoxy)pyrazin-2-yl)-1-methyl-2,3-dihydroimidazo[1,2-c]pyrimidin-5(1H)-one]
11 | 64% (4 hours) |  |  | Cc1onc(-c2ccc(F)cc2)c1COc1cnc(-c2cc3n(c(=O)n2)CC24CC(CN32)C4)cn1 [Compound 9, 3-(5-((3-(4-fluorophenyl)-5-methylisoxazol-4-yl)methoxy)pyrazin-2-yl)-7,8-dihydro-1H,6H,9H-7,8a-methanopyrrolo[1′,2′:3.4]imidazo[1,2-c]pyrimidin-1-one]
12 | 98% (4 hours) | 21.8 | 18 | Cc1onc(-c2ccc(F)cc2)c1COc1cnc(N2CCN3CCOC[C@@H]3C2)cn1 [Compound 40, (S)-8-(5-((3-(4-fluorophenyl)-5-methylisoxazol-4-yl)methoxy)pyrazin-2-yl) octahydropyrazino [2,1-c][1,4]oxazine]
